Measurements: patent publication US20120214822A1 (ASTRAZENECA AB, priority 2007, published 2012)

Target: human active recombinant p38α-6His tagged (Homo sapiens, UniProt Q16539)
Experiment: P38 Alpha Enzyme Assay (AlphaScreen, biotinylated-ATF2 substrate);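 further: 0.5 nM final p38α, reaction started with ATP and run 45 min at 37 °C, phospho-ATF2 read by antibody-based AlphaScreen, background wells quenched with EDTA before ATP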
Type: biochemical
Details: p38 alpha enzyme inhibition; means of replicate determinations; 4 h pre-incubation at 37° C.; SD of assay 0.2-0.3 log units

Sequence of human active recombinant p38α-6His tagged (Q16539 whole entry): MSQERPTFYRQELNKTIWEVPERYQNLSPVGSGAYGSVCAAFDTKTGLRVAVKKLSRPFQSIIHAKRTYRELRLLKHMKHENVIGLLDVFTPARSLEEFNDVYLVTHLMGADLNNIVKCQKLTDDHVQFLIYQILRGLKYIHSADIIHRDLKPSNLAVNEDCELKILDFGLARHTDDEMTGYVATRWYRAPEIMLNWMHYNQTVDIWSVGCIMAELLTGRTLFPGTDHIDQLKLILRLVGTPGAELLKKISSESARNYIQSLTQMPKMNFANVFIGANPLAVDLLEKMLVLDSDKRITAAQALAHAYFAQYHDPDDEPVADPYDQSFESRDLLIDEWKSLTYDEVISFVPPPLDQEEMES

Structure (SMILES) | pIC50
Cc1ccc(C(=O)NC2CC2)cc1-n1ccnc(NC2(c3cccc(F)c3OCCNC[C@@H](C)O)CC2)c1=O [Example 283, N-Cyclopropyl-3-[3-({1-[3-fluoro-2-(2-{[(2R)-2-hydroxypropyl]amino}ethoxy)phenyl]cyclopropyl}amino)-2-oxopyrazin-1(2H)-yl]-4-methylbenzamide] | 9.7
CC(C)(Nc1nccn(-c2cc(C(=O)NC3CC3)ccc2Cl)c1=O)c1ccccc1OCCNCCO [Example 331, 4-Chloro-N-cyclopropyl-3-[3-{[1-(2-{2-[(2-hydroxyethyl)amino]ethoxy}phenyl)-1-methylethyl]amino}-2-oxopyrazin-1(2H)-yl]benzamide] | 9.6
CCNC(=O)c1ccc(C)c(-n2ccnc(NC(C)(C)c3ccccc3OCCNC)c2=O)c1 [Example 220, N-Ethyl-4-methyl-3-[3-[[1-methyl-1-[2-[2-(methylamino)ethoxy]phenyl]ethyl]amino]-2-oxo-1(2H)-pyrazinyl]-benzamide] | 8.3
COCCNCCOc1ccccc1C1(Nc2nccn(-c3cc(C(=O)NC4CC4)ccc3C)c2=O)CC1 [Example 231, N-Cyclopropyl-3-[3-[[1-[2-[2-[(2-methoxyethyl)amino]ethoxy]phenyl]cyclopropyl]amino]-2-oxo-1(2H)-pyrazinyl]-4-methyl-benzamide] | 9.9
CONC(=O)c1ccc(C)c(-n2ccnc(N[C@@H](c3ccccc3)[C@@H](C)CN3CCOCC3)c2=O)c1 [Example 160, N-Methoxy-4-methyl-3-[3-[[(1R,2S)-2-methyl-3-(4-morpholinyl)-1-phenylpropyl]amino]-2-oxo-1(2H)-pyrazinyl]-benzamide] | 9.8
CCNC[C@H](O)COc1ccccc1C(C)(C)Nc1nccn(-c2cc(C(=O)NC3CC3)cc(F)c2C)c1=O [Example 309, N-Cyclopropyl-3-[3-{[1-(2-{[(2S)-3-(ethylamino)-2-hydroxypropyl]oxy}phenyl)-1-methylethyl]amino}-2-oxopyrazin-1(2H)-yl]-5-fluoro-4-methylbenzamide] | 10.2
Cc1ccc(C(=O)NC2CC2)cc1-n1ccnc(N[C@@H](c2ccccc2)[C@@H](C)CN2CCC(F)CC2)c1=O [Example 174, N-Cyclopropyl-3-[3-[[(1R,2S)-3-(4-fluoro-1-piperidinyl)-2-methyl-1-phenylpropyl]amino]-2-oxo-1(2H)-pyrazinyl]-4-methyl-benzamide] | 8.9
Cc1ccc(C(=O)NC2CC2)cc1-n1ccnc(N[C@@H](c2ccccc2)[C@@H](C)CN2CCC(O)CC2)c1=O [Example 152, N-Cyclopropyl-3-[3-[[(1R,2S)-3-(4-hydroxy-1-piperidinyl)-2-methyl-1-phenylpropyl]amino]-2-oxo-1(2H)-pyrazinyl]-4-methyl-benzamide] | 8.9
Cc1ccc(C(=O)NC2CC2)cc1-n1ccnc(NC2(c3ccccc3OCCN3CCNCC3)CC2)c1=O [Example 243, N-Cyclopropyl-4-methyl-3-[2-oxo-3-[[1-[2-[2-(1-piperazinyl)ethoxy]phenyl]cyclopropyl]amino]-1(2H)-pyrazinyl]-benzamide] | 9.4
CCNCCOc1ccccc1C(C)(C)Nc1nccn(-c2cc(C(=O)NC3CC3)ccc2C)c1=O [Example 198, N-Cyclopropyl-3-[3-[[1-[2-[2-(ethylamino)ethoxy]phenyl]-1-methylethyl]amino]-2-oxo-1(2H)-pyrazinyl]-4-methyl-benzamide] | 9.6
CONC(=O)c1ccc(C)c(-n2ccnc(N3CCNC(c4ccccc4)C3)c2=O)c1 (centres unmarked) [Example 126, N-Methoxy-4-methyl-3-[2-oxo-3-(3-phenyl-1-piperazinyl)-1(2H)-pyrazinyl]-benzamide] | 8.1
Cc1c(F)cc(C(=O)NC2CC2)cc1-n1ccnc(NC(C)(C)c2ccccc2SCCNCCO)c1=O [Example 322, N-Cyclopropyl-3-fluoro-5-[3-({1-[2-({2-[(2-hydroxyethyl)amino]ethyl}sulfanyl)phenyl]-1-methylethyl}amino)-2-oxopyrazin-1(2H)-yl]-4-methylbenzamide] | 9.8

More lines, now with the values ahead:

pIC50 | Structure (SMILES)
6.3 | Cc1ccc(C(=O)NC2CC2)cc1-n1ccnc(N[C@@H](CO)c2ccccc2)c1=O [Example 81, N-Cyclopropyl-3-[3-[[(1R)-2-hydroxy-1-phenylethyl]amino]-2-oxo-1(2H)-pyrazinyl]-4-methyl-benzamide]
8.2 | CSc1ccccc1CNc1nccn(-c2cc(C(=O)NC3CC3)ccc2C)c1=O [Example 128, N-Cyclopropyl-4-methyl-3-[3-[[[2-(methylthio)phenyl]methyl]amino]-2-oxo-1(2H)-pyrazinyl]-benzamide]
6.3 | Cc1ccc(C(=O)NC2CC2)cc1-n1ccnc(NCc2cccnc2)c1=O [Example 24, N-Cyclopropyl-4-methyl-3-[2-oxo-3-[(3-pyridinylmethyl)amino]-1(2H)-pyrazinyl]-benzamide]
6.2 | Cc1ccc(C(=O)NC2CC2)cc1-n1ccnc(NCc2cccc(C(=O)NC3CC3)c2)c1=O [Example 69, N-Cyclopropyl-3-[3-[[[3-[(cyclopropylamino)carbonyl]phenyl]methyl]amino]-2-oxo-1(2H)-pyrazinyl]-4-methyl-benzamide]
8.9 | Cc1ccc(C(=O)NC2CC2)cc1-n1ccnc(NC(C)(C)c2ccccc2O)c1=O [Example 134, N-Cyclopropyl-3-[3-[[1-(2-hydroxyphenyl)-1-methylethyl]amino]-2-oxo-1(2H)-pyrazinyl]-4-methyl-benzamide]
6.7 | Cc1ccc(C(=O)NC2CC2)cc1-n1ccnc(NCc2cccc(CN3CCN(C)CC3)c2)c1=O [Example 40, N-Cyclopropyl-4-methyl-3-[3-[[[3-[(4-methyl-1-piperazinyl)methyl]phenyl]methyl]amino]-2-oxo-1(2H)-pyrazinyl]-benzamide]
6.9 | Cc1ccc(C(=O)NC2CC2)cc1-n1ccnc(NCc2cccc(CN)c2)c1=O [Example 124, 3-[3-[[[3-(Aminomethyl)phenyl]methyl]amino]-2-oxo-1(2H)-pyrazinyl]-N-cyclopropyl-4-methyl-benzamide]
10 | Cc1ccc(C(=O)NC2CC2)cc1-n1ccnc(NC2(c3ccccc3OCCNC3CCC3)CC2)c1=O [Example 248, 3-[3-[[1-[2-[2-(cyclobutylamino)ethoxy]phenyl]cyclopropyl]amino]-2-oxo-1(2H)-pyrazinyl]-N-Cyclopropyl-4-methyl-benzamide]
7.2 | Cc1ccccc1CCNc1nccn(-c2cc(C(=O)NC3CC3)ccc2C)c1=O [Example 72, N-Cyclopropyl-4-methyl-3-[3-[[2-(2-methylphenyl)ethyl]amino]-2-oxo-1(2H)-pyrazinyl]-benzamide]
7 | Cc1ccc(C(=O)NC2CC2)cc1-n1ccnc(NCc2ccccc2CN2CCN(C)CC2)c1=O [Example 41, N-Cyclopropyl-4-methyl-3-[3-[[[2-[(4-methyl-1-piperazinyl)methyl]phenyl]methyl]amino]-2-oxo-1(2H)-pyrazinyl]-benzamide]
6.2 | Cc1ccc(C(=O)NC2CC2)cc1-n1ccnc(NCc2ccc(CN)cc2)c1=O [Example 125, 3-[3-[[[4-(Aminomethyl)phenyl]methyl]amino]-2-oxo-1(2H)-pyrazinyl]-N-cyclopropyl-4-methyl-benzamide]
